Target: T1, Slr1694 (SyPixD) (Synechocystis sp. PCC 6803, UniProt P74295)
T1 construct: wild type, expressed from pET28a(+)-slr1694 in E. coli CpX strains (CpXribF, CpXdeltaY); N-terminal vector extension (peptide 33-GSEFMSLYR-41 seen by MS); flavin incorporated in vivo; unlabeled, ring-13C6-Tyr or 13C apoprotein
T1 sequence (P74295 1-150): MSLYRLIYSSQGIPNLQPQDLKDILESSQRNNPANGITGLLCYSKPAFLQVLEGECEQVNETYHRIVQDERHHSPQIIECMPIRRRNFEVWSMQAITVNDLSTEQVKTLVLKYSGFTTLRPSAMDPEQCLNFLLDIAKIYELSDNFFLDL
Assay: light-minus-dark FTIR difference spectroscopy of holoprotein
Type: binding
Details: in H2O; blue light 460 nm; non-covalent flavin incorporated in vivo (unlabeled riboflavin fed); bound flavin species not analysed, FMN and FAD named

Structure (SMILES): Cc1cc2nc3c(=O)[nH]c(=O)nc-3n(C[C@H](O)[C@H](O)[C@H](O)COP(=O)(O)OP(=O)(O)OC[C@H]3O[C@@H](n4cnc5c(N)ncnc54)[C@H](O)[C@@H]3O)c2cc1C [FAD]
- light-minus-dark FTIR difference spectroscopy of holoprotein: unlabeled riboflavin was provided in the medium throughout the cultivation procedure for the production of FMN and FAD cofactors
